Assay: molar heat capacity at constant pressure
Conditions: 101.33 kPa, Vacuum adiabatic calorimetry

CCCC(=O)OC [methyl butanoate]
molar heat capacity at constant pressure [J/K/mol]
Conditions	Crystal	Liquid
130 K	99.17	–
131.79 K	100.55	–
133.79 K	101.43	–
135.8 K	102.27	–
137.8 K	103.03	–
139.79 K	103.9	–
140 K	103.65	–
141.79 K	104.89	–
143.79 K	105.51	–
145.78 K	106.36	–
147.78 K	107.25	–
149.77 K	107.92	–
150 K	108.14	–
151.89 K	109.06	–
153.86 K	109.91	–
155.85 K	110.69	–
157.83 K	111.73	–
159.81 K	112.47	–
160 K	112.62	–
161.79 K	113.29	–
163.77 K	114.29	–
165.74 K	115.26	–
167.72 K	116.18	–
169.56 K	116.65	–
170 K	117.11	–
171.52 K	117.81	–
173.49 K	119.09	–
175.45 K	120.75	–
177.41 K	122.58	–
179.36 K	125.17	–
180 K	121.59	–
181.29 K	129.69	–
183.2 K	139.88	–
185.04 K	158.37	–
186.78 K	216.75	–
188.21 K	448.34	–
189.16 K	1561.8	–
189.7 K	8659.7	–
190 K	126.08	–
190.09 K	126.12	184.56
191.08 K	185.22	–
192.79 K	–	184.74
194.49 K	–	184.98
196.18 K	–	185.21
197.88 K	–	185.04
199.57 K	–	185.15
200 K	–	185.19
201.25 K	–	185.01
202.85 K	–	185.47
202.93 K	–	185.15
204.61 K	–	185.47
204.73 K	–	185.64
206.27 K	–	185.39
206.69 K	–	185.68
207.94 K	–	185.44
208.64 K	–	186
210 K	–	185.83
210.58 K	–	186.03
212.53 K	–	186
214.48 K	–	186.17
216.42 K	–	186.44
218.37 K	–	186.11
220 K	–	186.51
220.31 K	–	186.33
222.24 K	–	186.86
224.17 K	–	186.8
226.1 K	–	186.88
228.02 K	–	187.23
229.93 K	–	187.61
230 K	–	187.52
231.85 K	–	187.86
233.68 K	–	187.83
235.58 K	–	188.04
237.48 K	–	188.4
239.37 K	–	188.78
240 K	–	188.78
241.26 K	–	188.74
243.14 K	–	189.23
245.01 K	–	189.8
246.89 K	–	190.04
248.76 K	–	190.11
250 K	–	190.21
250.62 K	–	190.43
252.49 K	–	190.56
254.35 K	–	190.93
256.2 K	–	190.97
258.06 K	–	191.41
259.91 K	–	191.46
260 K	–	191.68
261.76 K	–	191.67
263.49 K	–	192.11
265.34 K	–	192.17
267.17 K	–	192.77
269.01 K	–	193.06
270 K	–	193.16
270.85 K	–	193.64
272.68 K	–	194.01
274.5 K	–	193.7
276.33 K	–	194.03
278.16 K	–	194.27
279.98 K	–	194.58
280 K	–	194.68
281.79 K	–	195.04
283.59 K	–	195.25
285.4 K	–	195.54
287.19 K	–	195.76
288.98 K	–	196.51
290 K	–	196.51
290.74 K	–	196.84
292.33 K	–	196.73
294.09 K	–	197.27
295.83 K	–	197.8
297.59 K	–	198
298.15 K	–	198.08
299.34 K	–	198.43
300 K	–	198.44
301.06 K	–	198.72
302.76 K	–	198.98
304.45 K	–	199.24
306.14 K	–	199.38
307.81 K	–	199.85
309.48 K	–	200.31
310 K	–	200.39
311.13 K	–	200.58
312.78 K	–	200.66
314.42 K	–	201.21
316.05 K	–	201.68
317.67 K	–	201.91
318.97 K	–	202.28
320 K	–	202.43
320.57 K	–	202.72
322.17 K	–	203.14
323.75 K	–	203.27
325.32 K	–	203.68
326.89 K	–	204.18
328.44 K	–	204.41
329.98 K	–	204.65
330 K	–	204.68
331.51 K	–	204.84
333.03 K	–	205.34
334.54 K	–	205.78
336.04 K	–	206.3
337.49 K	–	206.62
338.96 K	–	206.61
340 K	–	207.21
340.42 K	–	207.11
341.87 K	–	207.49
342.87 K	–	207.85
344.3 K	–	208.38
345.71 K	–	208.82
347.12 K	–	209.31
348.51 K	–	209.73
349.89 K	–	209.95
350 K	–	210.03
351.26 K	–	210.42
352.61 K	–	210.86
353.95 K	–	211.39
355.28 K	–	211.75
356.6 K	–	211.91
357.9 K	–	212.69
359.2 K	–	212.83
360 K	–	213
360.47 K	–	213.07
361.74 K	–	213.3
362.99 K	–	214.05
363.57 K	–	213.92
364.8 K	–	214.49
366.02 K	–	214.53
367.22 K	–	214.65
368.41 K	–	215.35
369.58 K	–	215.99
370 K	–	215.8
370.75 K	–	216.01
371.9 K	–	216.31

Reference: the NIST ThermoML archive (doi:10.1016/j.jct.2011.10.001)
